Here are results for 26 compounds from paper PMC8892858 (ACS Omega, 2022).

Data set [1] relates to rRVFVΔNSs::Katushka. Description: microbe, parasite or virus in culture. The class given is cell-based, Rift Valley fever virus. The note with it: for IC50: read-out: IC50, dose-response curves of inhibition of RVFV infection (Figure 5A).
The next data set can be described thus: in vitro. The note with it: human.
In data set [2] the test system is rRVFVΔNSs::Katushka. In kind it is cell-based, Rift Valley fever virus.
Data set [3] deals with rRVFVΔNSs::Katushka. The class given is cell-based, Rift Valley fever virus. This is another data set of the same source.
Data set [4] deals with A549 cells. The class given is cell-based, Human.
For data set [5], the system named is A549 cells.
[6] abbreviates: Rift Valley fever virus, A549, 16 h, read-out: EC50 value.
Where [7] appears, read: Rift Valley fever virus, A549, 16 h.

Values joined by “and” are separate entries in the source; they are usually repeats but may differ in a detail not shown here. Identical values can stand only once. “Also recorded” adds a separate entry of the source. Counter-ions that a name gives are not always drawn. Like-named read-outs stand apart in the source and are kept apart here.

Turning to `c1ccc(-c2ccc(OCCCCN3CCN(c4ccccc4)CC3)cc2)cc1` [Compound 11, 1-(4-(Biphenyl-4-yloxy)butyl)-4-phenylpiperazine], in the data set on rRVFVΔNSs::Katushka [1], the EC50 value entry was “the antiviral activity was completely eliminated; also recorded: ND (no inhibition)”. For the same compound, the CC50 in the data set “in vitro” was greater than 300 µM. Further, the “inhibition of RVFV RNA expression (qRT-PCR)” value in the data set on rRVFVΔNSs::Katushka [2] is recorded as “did not show any inhibition”.
What is called EC50 is the midpoint of the concentration-response curve. `NCCOc1ccc(-c2ccccc2)cc1` [Compound 5b, 2-(Biphenyl-4-yloxy)ethanamine·HCl] had a Selectivity index in the data set on rRVFVΔNSs::Katushka [1] of 8.1. Further, in the data set with rRVFVΔNSs::Katushka [1] (setting [6]), the 50% effective concentration (EC50) was found to be 37.3 ± 0.5 µM. This compound came in with a CC50 in “in vitro” greater than 300 µM.
For `c1ccc(OCCCCN2CCNCC2)cc1` [Compound 13f, 1-(4-Phenoxybutyl)piperazine·2HCl], the EC50 value entry in the data set on rRVFVΔNSs::Katushka [1] was “completely removed the antiviral activity; also recorded: ND (no inhibition)”. This compound also returned a CC50 in the data set “in vitro” greater than 300 µM.
With `c1cc(C2CCCCC2)ccc1OCCCCN1CCNCC1` [Compound 13l, 1-(4-(4-Cyclohexylphenoxy)butyl)piperazine·2HCl], the Selectivity index with rRVFVΔNSs::Katushka [1] is given as 5.6. The half-maximal effective concentration (EC50) with rRVFVΔNSs::Katushka [1] (setting [6]) came out at 8.8 ± 0.5 µM. This compound also yielded a CC50 in “in vitro” of 49.9 ± 10.1 µM.
`c1ccc(Cc2ccccc2OCCCCN2CCNCC2)cc1` [Compound 13e, 1-(4-(2-Benzylphenoxy)butyl)piperazine·2HCl] had a Selectivity index in the data set on rRVFVΔNSs::Katushka [1] of 4.7. Further, the EC50 with rRVFVΔNSs::Katushka [1] (setting [6]) turned out to be 31.2 ± 15.8 µM. This compound also gave a CC50 in the data set “in vitro” of 148.4 ± 1.3 µM.
The compound `CC(C)c1cccc(-c2ccc(OCCCCN3CCNCC3)cc2)c1` [Compound 13j, 1-(4-(3′-Isopropylbiphenyl-4-yloxy)butyl)piperazine·2HCl] returned a Selectivity index in the data set on rRVFVΔNSs::Katushka [1] of 5.4. The concentration giving a half-maximal response (EC50) in the data set with rRVFVΔNSs::Katushka [1] (setting [6]) was found to be 4.7 ± 0.7 µM. The compound further showed a CC50 in “in vitro” of 25.5 ± 8.9 µM.
In the data set with rRVFVΔNSs::Katushka [1], `CN1CCN(CCCCOc2ccc(-c3ccccc3)cc2)CC1` [Compound 8c, 1-(4-(Biphenyl-4-yloxy)butyl)-4-methylpiperazine] gave a Selectivity index of 2.2. The EC50 with rRVFVΔNSs::Katushka [1] (setting [6]) turned out to be 61.7 ± 17.6 µM. In addition, the CC50 in “in vitro” amounted to 136.2 ± 1.2 µM. The “inhibition of RVFV RNA expression (qRT-PCR)” value in the data set with rRVFVΔNSs::Katushka [2] is listed as “unable to inhibit the viral RNA expressions”.
As for `NCCCCCCOc1ccc(-c2ccccc2)cc1` [Compound 5a, 6-(Biphenyl-4-yloxy)hexan-1-amine·HCl], the Selectivity index in the data set with rRVFVΔNSs::Katushka [1] is given as 3.6. In addition, the concentration giving a half-maximal response (EC50) in the data set on rRVFVΔNSs::Katushka [1] (setting [6]) is 12.1 ± 2.1 µM. The compound also came in with a CC50 in “in vitro” of 44.6 ± 0.3 µM.
As for `c1ccc(-c2ccc(OCCN3CCOCC3)cc2)cc1` [Compound 4e, 4-(2-(Biphenyl-4-yloxy)ethyl)morpholine], the 50% effective concentration (EC50) in the data set on rRVFVΔNSs::Katushka [1] (setting [6]) is greater than 100 µM. This compound had a CC50 in “in vitro” greater than 300 µM.
The IC50 is the midpoint of a concentration-inhibition curve. Take `c1ccc(-c2cccc(OCCCCN3CCNCC3)c2)cc1` [Compound 13a, 1-(4-(Biphenyl-3-yloxy)butyl)piperazine·2HCl]: in the data set with rRVFVΔNSs::Katushka [1], the Selectivity index was 10 and 10.4. Also, in the data set on rRVFVΔNSs::Katushka [1] (setting [6]), the EC50 amounted to 13.8 ± 5.3 µM. The IC50 in the data set with rRVFVΔNSs::Katushka [1] (setting [7]) is 13.8 µM. Besides, the CC50 in “in vitro” was found to be 145 ± 5.5 µM. In addition, the “antiviral potency by time of addition” value in the data set on rRVFVΔNSs::Katushka [3] was “active at early stages of the viral replication cycle, most likely during or just after virus entry; also recorded: progressively lost its potency when added at late stages of the infection cycle”. In addition, the “DiBAC4(3) fluorescence intensity (membrane potential)” value in the data set on A549 cells [4] is “increased DiBAC4(3) fluorescence intensity (depolarization)”.
As to `c1ccc(-c2ccccc2OCCCCN2CCNCC2)cc1` [Compound 13b, 1-(4-(Biphenyl-2-yloxy)butyl)piperazine·2HCl], the Selectivity index with rRVFVΔNSs::Katushka [1] is greater than 4.7. In the data set with rRVFVΔNSs::Katushka [1] (setting [6]), the EC50 worked out at 63.5 ± 11.1 µM. In addition, the CC50 in “in vitro” was greater than 300 µM.
Compound `c1ccc(Cc2cccc(OCCCCN3CCNCC3)c2)cc1` [Compound 13d, 1-(4-(3-Benzylphenoxy)butyl)piperazine·2HCl] registered a Selectivity index with rRVFVΔNSs::Katushka [1] of 5.8. Besides, the EC50 in the data set with rRVFVΔNSs::Katushka [1] (setting [6]) turned out to be 22.9 ± 5.2 µM. In “in vitro”, the CC50 came out at 134.2 ± 0.9 µM.
As for “1-(4-(Benzhydryloxy)butyl)-4-phenylpiperazine [Compound 16]”, the CC50 in the data set on A549 cells [5] is greater than 300 µM. The EC50 value entry with rRVFVΔNSs::Katushka [1] is listed as “reduced the antiviral activity significantly”. Moreover, in the data set with rRVFVΔNSs::Katushka [1] (read-out: EC50 value), the half-maximal effective concentration (EC50) was greater than 100 µM.
In the data set with rRVFVΔNSs::Katushka [1], `c1ccc(-c2ccc(OCCCCN3CCNCC3)cc2)cc1` [Compound 9a, 1-(4-(Biphenyl-4-yloxy)butyl)piperazine] registered a Selectivity index of 5.8. In addition, the 50% effective concentration (EC50) in the data set with rRVFVΔNSs::Katushka [1] (setting [6]) was 12.8 ± 0.2 µM. For the same compound, the CC50 in “in vitro” turned out to be 74.8 ± 1.2 µM.
On the same counts, the results for `c1ccc(-c2ccc(OCCN3CCNCC3)cc2)cc1` [Compound 5f, 1-(2-(Biphenyl-4-yloxy)ethyl)piperazine] are 4.2, 38.7 ± 11.6 µM and 165 ± 22.9 µM.
In the data set with rRVFVΔNSs::Katushka [1], `NCCCOc1ccc(-c2ccccc2)cc1` [Compound 5c, 3-(Biphenyl-4-yloxy)propan-1-amine] returned a Selectivity index of 3.8. Moreover, the 50% effective concentration (EC50) in the data set on rRVFVΔNSs::Katushka [1] (setting [6]) stood at 37.8 ± 6.7 µM. The compound also had a CC50 in the data set “in vitro” of 147 ± 4 µM.
As for `CC(=O)c1cccc(-c2ccc(OCCCCN3CCNCC3)cc2)c1` [Compound 13g, 1-(4′-(4-(Piperazin-1-yl)butoxy)biphenyl-3-yl)ethanone·2HCl], the EC50 in the data set on rRVFVΔNSs::Katushka [1] (setting [6]) worked out at 41.9 ± 27.3 µM. For the same compound, the CC50 in “in vitro” was greater than 300 µM.
The compound `c1ccc(Cc2ccc(OCCCCN3CCNCC3)cc2)cc1` [Compound 13c, 1-(4-(4-Benzylphenoxy)butyl)piperazine·2HCl] registered a Selectivity index in the data set on rRVFVΔNSs::Katushka [1] of 9.1. Moreover, the concentration for a half-maximal effect (EC50) in the data set with rRVFVΔNSs::Katushka [1] (setting [6]) came to 15.4 ± 4.7 µM. The CC50 in “in vitro” is 140.3 ± 0.8 µM.
Consider `c1ccc(-c2ccc(OCCN3CCCCC3)cc2)cc1` [Compound 4d, 1-(2-(Biphenyl-4-yloxy)ethyl)piperidine], for which, in the data set on rRVFVΔNSs::Katushka [1] (setting [6]), the half-maximal effective concentration (EC50) is greater than 100 µM. In addition, the CC50 in “in vitro” is greater than 300 µM.
In the data set with rRVFVΔNSs::Katushka [1], `NCCCNCCOc1ccc(-c2ccccc2)cc1` [Compound 1, N1-(2-(Biphenyl-4-yloxy)ethyl)propane-1,3-diamine·2HCl] registered a Selectivity index of 7.1. Besides, the EC50 in the data set on rRVFVΔNSs::Katushka [1] (setting [6]) turned out to be 12 ± 1.3 µM. The compound also registered a CC50 in “in vitro” of 86 ± 9 µM.
For `c1ccc(-c2ccc(OCCCCCN3CCNCC3)cc2)cc1` [Compound 9b, 1-(5-(Biphenyl-4-yloxy)pentyl)piperazine], the EC50 in the data set on rRVFVΔNSs::Katushka [1] (setting [6]) amounted to 11.7 ± 1.8 µM. The compound further had a CC50 in the data set “in vitro” of 44.2 ± 16.6 µM.
In turn, `c1ccc(-c2ccc(OCCCN3CCNCC3)cc2)cc1` [Compound 5g, 1-(3-(Biphenyl-4-yloxy)propyl)piperazine] came in with a Selectivity index in the data set with rRVFVΔNSs::Katushka [1] of less than 2. In the data set on rRVFVΔNSs::Katushka [1] (setting [6]), the EC50 was greater than 100 µM. For the same compound, the CC50 in “in vitro” was found to be 203 ± 53.5 µM.
Consider `c1cc(C23CC4CC(CC(C4)C2)C3)ccc1OCCCCN1CCNCC1` [Compound 13m, 1-(4-(4-Adamantylphenoxy)butyl)piperazine·2HCl], for which the CC50 value result in the data set on A549 cells [5] is reported as “Extreme toxicity”. Besides, the Selectivity index in the data set on rRVFVΔNSs::Katushka [1] was 2.4. For the same compound, in the data set on rRVFVΔNSs::Katushka [1] (setting [6]), the half-maximal effective concentration (EC50) worked out at 5.4 ± 1.2 µM. The same compound had a CC50 in “in vitro” of 13.1 µM.
In the case of `C=C[C@H]1C[N@@]2CC[C@H]1C[C@@H]2[C@@H](O)c1ccnc2ccc(OC)cc12` [quinidine, reference compound], the half-maximal effective concentration (EC50) in the data set with rRVFVΔNSs::Katushka [1] (Rift Valley fever virus, A549, 16 h, read-out: EC50 value, inhibition of RVFV infection (dose-response before membrane potential assay)) came out at 146 µM. For the same compound, the IC50 with rRVFVΔNSs::Katushka [1] (setting [7]) was determined as 164 µM. Further, the “DiBAC4(3) fluorescence intensity (membrane potential)” value in the data set with A549 cells [4] is “increased DiBAC4(3) fluorescence intensity (depolarization)”.
As for `CN(C)c1cccc(-c2ccc(OCCCCN3CCNCC3)cc2)c1` [Compound 13h, N,N-Dimethyl-4′-(4-(piperazin-1-yl)butoxy)biphenyl-3-amine·3HCl], the CC50 value entry with A549 cells [5] is reported as “high toxicity”. The compound also yielded a Selectivity index with rRVFVΔNSs::Katushka [1] of 5.3. In the data set with rRVFVΔNSs::Katushka [1] (setting [6]), the 50% effective concentration (EC50) was determined as 15.5 ± 4.7 µM. Further, the CC50 in “in vitro” is 82.5 ± 15.2 µM.
Consider `CC(C)c1ccc(-c2ccc(OCCCCN3CCNCC3)cc2)cc1` [Compound 13i, 1-(4-(4′-Isopropylbiphenyl-4-yloxy)butyl)piperazine·2HCl], for which, in the data set on rRVFVΔNSs::Katushka [1], the Selectivity index is reported as 5.1. In addition, the EC50 with rRVFVΔNSs::Katushka [1] (setting [6]) amounted to 4.6 ± 0.3 µM. In the data set “in vitro”, the CC50 was 23.5 ± 0.1 µM.
